Biological target: aspartate aminotransferase (AAT), K258A mutant (Escherichia coli, UniProt P00509, K246A, form not given)
Assay: X-ray crystallography
Type: binding
Details: covalent external aldimine with L-aspartate; replaces PLP

Chain of aspartate aminotransferase (AAT), K258A mutant (P00509 whole entry K246A, form open): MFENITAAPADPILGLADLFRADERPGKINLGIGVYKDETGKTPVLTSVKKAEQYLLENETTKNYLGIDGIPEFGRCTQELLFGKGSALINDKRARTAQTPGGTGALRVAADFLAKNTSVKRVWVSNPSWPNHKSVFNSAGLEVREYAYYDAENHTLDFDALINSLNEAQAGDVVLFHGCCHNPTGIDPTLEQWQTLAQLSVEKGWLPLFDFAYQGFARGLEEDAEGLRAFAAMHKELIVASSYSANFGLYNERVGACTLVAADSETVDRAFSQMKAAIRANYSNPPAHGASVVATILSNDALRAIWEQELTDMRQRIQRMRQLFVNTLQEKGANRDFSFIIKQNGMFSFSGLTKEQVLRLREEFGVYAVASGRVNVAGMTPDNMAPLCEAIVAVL

SMILES: Cc1ccc(COP(=O)(O)O)c(C=O)c1O [deazaPLP]
- X-ray crystallography (1.5 Å): structure of the K258A/deazaPLP/L-aspartate external aldimine intermediate determined here by X-ray crystallography
